Laboratory results published in patent US20260315606A1, “NOVEL COMPOUNDS CAPABLE OF INDUCING OSTEOGENIC DIFFERENTIATION” (AJOU UNIVERSITY INDUSTRY-ACADEMIC COOPERATION FOUNDATION, priority 2023, published 2026).

Experiments:
p53 = p53 activation in selection of compounds (FIG. 2); assay type: cell-based, human; conditions: selected treatment concentrations not given
MDM2 = target: T1, MDM2 (Homo sapiens, UniProt Q00987); assay: Western blot (SDS-PAGE) of intracellular MDM2 protein degradation in hDPSCs; assay type: cell-based; conditions: FIG. 2; selected treatment concentrations not given
T1 construct: degradation by nutlin-based CRBN-recruiting PROTACs, Western blot
T1 sequence (Q00987 whole entry): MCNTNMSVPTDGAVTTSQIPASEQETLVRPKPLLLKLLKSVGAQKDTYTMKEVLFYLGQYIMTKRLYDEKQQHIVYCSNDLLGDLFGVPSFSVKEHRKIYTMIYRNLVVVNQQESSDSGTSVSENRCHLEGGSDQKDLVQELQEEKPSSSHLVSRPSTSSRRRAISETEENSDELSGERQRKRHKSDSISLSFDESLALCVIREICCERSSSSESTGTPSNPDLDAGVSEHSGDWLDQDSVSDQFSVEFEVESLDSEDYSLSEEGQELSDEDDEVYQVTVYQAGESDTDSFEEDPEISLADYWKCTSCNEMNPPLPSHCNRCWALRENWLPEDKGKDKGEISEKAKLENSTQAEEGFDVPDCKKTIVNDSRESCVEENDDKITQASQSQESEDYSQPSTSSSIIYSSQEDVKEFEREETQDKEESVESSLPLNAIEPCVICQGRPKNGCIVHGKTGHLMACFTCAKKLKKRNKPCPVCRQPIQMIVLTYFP
T1 sequence (Q96SW2 whole entry partner): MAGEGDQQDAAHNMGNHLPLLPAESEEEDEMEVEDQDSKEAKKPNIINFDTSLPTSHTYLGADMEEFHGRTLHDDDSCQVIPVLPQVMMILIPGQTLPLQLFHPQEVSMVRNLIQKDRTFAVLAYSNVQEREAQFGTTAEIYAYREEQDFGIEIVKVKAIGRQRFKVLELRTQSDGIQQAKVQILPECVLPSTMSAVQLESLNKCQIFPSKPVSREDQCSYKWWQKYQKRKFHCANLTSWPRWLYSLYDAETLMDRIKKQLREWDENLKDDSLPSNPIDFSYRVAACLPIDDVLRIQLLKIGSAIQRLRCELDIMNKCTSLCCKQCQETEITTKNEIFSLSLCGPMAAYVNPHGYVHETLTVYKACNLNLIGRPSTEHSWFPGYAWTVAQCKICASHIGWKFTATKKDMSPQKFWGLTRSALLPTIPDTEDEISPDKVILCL
Procedure: Human dental pulp stem cell lines (hDPSCs) were treated with 14 types of synthesized MDM2-PROTACs (10 μM) for 1 hour and Western blot analysis using SDS-PAGE gel was performed to evaluate the intracellular MDM2 protein degradation capacity.

Substance	p53 activation (selected compounds) (p53)	MDM2 degradation (selected compounds) (MDM2)
2-(4-(cis-4,5-bis(4-chlorophenyl)-2-(2-isopropoxy-oxopiperazin-1-yl)-N-(9-(2-(2,6-dioxopiperidin-3-yl)-1,3-dioxoisoindolin-4-yl)non-8-yn-1-yl) acetamide [Compound 16b]	activate p53	effectively degrade MDM2
2-(4-(cis-4,5-bis(4-chlorophenyl)-2-(2-isopropoxy-4-methoxyphenyl)-4,5-dihydro-1H-imidazole-1-carbonyl)-2-oxopiperazin-1-yl)-N-(8-((2-(2,6-dioxo-opiperidin-3-yl)-1,3-dioxoisoindolin-4-yl)oxy)octyl)acetamide [Compound 6b]	activate p53	effectively degrade MDM2
